According to US4169197A, “6-Deoxyneamines aminoglycoside compounds” (The Upjohn Company, priority 1978, dated 1979):
Converted amounts (≈) assume the structure as drawn. Where two headings read alike, the source gives them in different places.

Columns and labels:
Format in all cases: cell-based
E. coli UC 51 = experiment: standard disc plate assay, zones of inhibition; settings: Escherichia coli, UC51, 12.5 mm paper discs, read-out: Zones of Inhibition; for zone of inhibition at 100 µg/mL: 0.1 mg/ml; for zone of inhibition at 1000 µg/mL: 1 mg/ml
Text: (§1) The compounds of formulas (V, VII, IX, XI, XIV, XVI, and XIX) are active as antibacterials and can be used in various environments to erradicate or control susceptible microorganisms. Tables I and II set forth the in vitro antibacterial test results for representative compounds of the present invention. The results were obtained with a standard disc plate assay using 12.5 mm paper discs.

B. subtilis UC 564 = experiment: standard disc plate assay, zones of inhibition; settings: Bacillus subtilis, UC564, 12.5 mm paper discs, read-out: Zones of Inhibition; for zone of inhibition at 100 µg/mL: 0.1 mg/ml; for zone of inhibition at 1000 µg/mL: 1 mg/ml
Text: as §1

S. aureus UC 80 = experiment: standard disc plate assay, zones of inhibition; settings: Staphylococcus aureus, 12.5 mm paper discs; for zone of inhibition at 100 µg/mL: 0.1 mg/ml
Text: as §1

S. gallinarum UC 265 = experiment: standard disc plate assay, zones of inhibition; settings: Salmonella enterica, 12.5 mm paper discs, read-out: Zones of Inhibition; for zone of inhibition at 100 µg/mL: 0.1 mg/ml; for zone of inhibition at 1000 µg/mL: 1 mg/ml
Text: as §1

S. schottmuelleri UC 126 [1] = experiment: standard disc plate assay, zones of inhibition; settings: 1 mg/ml, 12.5 mm paper discs
Text: as §1

S. lutea UC 130 = experiment: standard disc plate assay, zones of inhibition; settings: Micrococcus luteus, UC130, 1 mg/ml, 12.5 mm paper discs, read-out: Zones of Inhibition
Text: as §1

K. pneumoniae UC 57 = experiment: standard disc plate assay, zones of inhibition; settings: Klebsiella pneumoniae, UC57, 12.5 mm paper discs, read-out: Zones of Inhibition; for zone of inhibition at 100 µg/mL: 0.1 mg/ml; for zone of inhibition at 1000 µg/mL: 1 mg/ml
Text: as §1

P. vulgaris UC 93 [2] = experiment: standard disc plate assay, zones of inhibition; settings: Proteus vulgaris, UC93, 1 mg/ml, 12.5 mm paper discs, read-out: Zones of Inhibition
Text: as §1

Ps. aeruginosa UC 95 [3] = experiment: standard disc plate assay, zones of inhibition; settings: Pseudomonas aeruginosa, UC95; 1 mg/ml; 12.5 mm paper discs; Table II; read-out: Zones of Inhibition
Text: as §1

B. cereus UC 3145 = experiment: standard disc plate assay, zones of inhibition; settings: Bacillus cereus, 12.5 mm paper discs
Text: as §1

S. pneumoniae I UC 41 = experiment: standard microplate test in BHI Agar; settings: Streptococcus pneumoniae, read-out: Minimal Inhibitory Concentration
Protocol: (§2) The compounds VII, XI, XVβ, XVα and XVI were tested in a standard microplate test in BHI (Brain Heart Infusion) Agar at a concentration of 1 mg./ml. and dilutions thereof at 37° incubation temperature. The end points are read out 20 hours. BHI Agar is supplied by Difco Laboratories, Detroit, Mich.

E. coli UC 311 = experiment: standard microplate test in BHI Agar; settings: Escherichia coli, UC311; BHI Agar, 37°, 20 hours; Table IV; read-out: Minimal Inhibitory Concentration
Protocol: as §2

S. typhi UC 215 = experiment: standard microplate test in BHI Agar; settings: Salmonella enterica, 20 h, read-out: Minimal Inhibitory Concentration
Protocol: as §2

S. faecalis UC 694 = experiment: standard microplate test in BHI Agar; settings: Enterococcus faecalis, UC694, 20 h, read-out: Minimal Inhibitory Concentration
Protocol: as §2

S. pyogenes UC 152 = experiment: standard microplate test in BHI Agar; settings: Streptococcus pyogenes, read-out: Minimal Inhibitory Concentration
Protocol: as §2

S. schottmuelleri UC 126 [4] = experiment: standard microplate test in BHI Agar; settings: 37°, 20 hours, Table IV, read-out: Minimal Inhibitory Concentration
Protocol: as §2

S. flexneri UC 143 = experiment: standard microplate test in BHI Agar; settings: Shigella flexneri, UC143, 37°, 20 hours, Table IV, read-out: Minimal Inhibitory Concentration
Protocol: as §2

S. marcescens UC 131 = experiment: standard microplate test in BHI Agar; settings: Serratia marcescens, UC131; BHI Agar, 37°, 20 hours; Table IV; read-out: Minimal Inhibitory Concentration
Protocol: as §2

K. pneumoniae UC 58 = experiment: standard microplate test in BHI Agar; settings: Klebsiella pneumoniae, read-out: Minimal Inhibitory Concentration
Protocol: as §2

S. aureus UC 76 = experiment: standard microplate test in BHI Agar; settings: Staphylococcus aureus, read-out: Minimal Inhibitory Concentration
Protocol: as §2

P. morganii UC 3186 = experiment: standard microplate test in BHI Agar; settings: Morganella morganii, read-out: Minimal Inhibitory Concentration
Protocol: as §2

P. vulgaris UC 93 [5] = experiment: standard microplate test in BHI Agar; settings: Proteus vulgaris, UC93; BHI Agar, 37°, 20 hours; Table IV; read-out: Minimal Inhibitory Concentration
Protocol: as §2

P. rettgeri UC 339 = experiment: standard microplate test in BHI Agar; settings: Providencia rettgeri, UC339; BHI Agar, 37°, 20 hours; Table IV; read-out: Minimal Inhibitory Concentration
Protocol: as §2

Ps. aeruginosa UC 95 [6] = experiment: standard microplate test in BHI Agar; settings: Pseudomonas aeruginosa, UC95; BHI Agar, 37°, 20 hours; Table IV; read-out: Minimal Inhibitory Concentration
Protocol: as §2

P. mirabilis UC 6671 = experiment: standard microplate test in BHI Agar; settings: Proteus mirabilis, UC6671; BHI Agar, 37°, 20 hours; Table IV; read-out: Minimal Inhibitory Concentration
Protocol: as §2

SMILES	MIC (E. coli UC 311)	MIC (S. typhi UC 215)	MIC (S. faecalis UC 694)	MIC (S. schottmuelleri UC 126 [4])	MIC (S. flexneri UC 143)	MIC (S. marcescens UC 131)	MIC (P. vulgaris UC 93 [5])	MIC (P. rettgeri UC 339)	MIC (Ps. aeruginosa UC 95 [6])	MIC (P. mirabilis UC 6671)	zone of inhibition at 1000 µg/mL (E. coli UC 51; Table I)	zone of inhibition at 100 µg/mL (B. subtilis UC 564; Table I)	zone of inhibition at 1000 µg/mL (B. subtilis UC 564; Table I)	zone of inhibition at 1000 µg/mL (S. gallinarum UC 265; Table I)	zone of inhibition at 1000 µg/mL (S. schottmuelleri UC 126 [1]; Table I)	zone of inhibition at 1000 µg/mL (K. pneumoniae UC 57; Table I)	zone of inhibition at 1000 µg/mL (P. vulgaris UC 93 [2]; Table I)	further results
NC[C@H]1O[C@H](O[C@@H]2[C@@H](N)C[C@@H](N)C[C@@H]2O)[C@H](N)[C@@H](O)[C@@H]1O [6-Deoxy-5-epineamine (XI), 6-deoxy-5-epineamine]																		zone of inhibition at 100 µg/mL (E. coli UC 51; Table II): 16 mm; zone of inhibition at 1000 µg/mL (E. coli UC 51; Table II): 24 mm; zone of inhibition at 100 µg/mL (B. subtilis UC 564; Table II): 26 mm; zone of inhibition at 1000 µg/mL (B. subtilis UC 564; Table II): 35 mm; zone of inhibition at 100 µg/mL (S. aureus UC 80; UC80, Table II, read-out: Zones of Inhibition): 17 mm; zone of inhibition at 1000 µg/mL (S. aureus UC 80; UC80, 1 mg/ml, Table II, read-out: Zones of Inhibition): 24 mm; zone of inhibition at 100 µg/mL (S. gallinarum UC 265; Table II): 18 mm; zone of inhibition at 1000 µg/mL (S. gallinarum UC 265; Table II): 27 mm; zone of inhibition at 1000 µg/mL (S. schottmuelleri UC 126 [1]; Table II): 21 mm; zone of inhibition at 1000 µg/mL (S. lutea UC 130; Table II): 17 mm; zone of inhibition at 100 µg/mL (K. pneumoniae UC 57; Table II): 23 mm; zone of inhibition at 1000 µg/mL (K. pneumoniae UC 57; Table II): 30 mm; zone of inhibition at 1000 µg/mL (P. vulgaris UC 93 [2]; Table II): 24 mm; zone of inhibition at 1000 µg/mL (Ps. aeruginosa UC 95 [3]): 17 mm; zone of inhibition at 1000 µg/mL (B. cereus UC 3145; UC3145, 1 mg/ml, Table II, read-out: Zones of Inhibition): 22 mm
NC[C@H]1O[C@H](O[C@@H]2[C@@H](N)C[C@@H](N)C[C@H]2O[C@@H]2C[C@@H](N)[C@H](O)[C@@H](CO)O2)[C@H](N)[C@@H](O)[C@@H]1O [Compound XVI, O-2,6-diamino-2,6-dideoxy-α-D-glucopyranosyl (1→4)-O-[3-amino-2,3-dideoxy-α-D-arabinohexopyranosyl(1→5)]-2,6-dideoxy-D-streptamine]	> 500 µg/mL	> 500 µg/mL	> 500 µg/mL	> 500 µg/mL	> 500 µg/mL	> 500 µg/mL	> 500 µg/mL	> 500 µg/mL	> 500 µg/mL	> 500 µg/mL	19 mm	25 mm	34 mm	20 mm	15 mm	24 mm	18 mm	MIC (S. pneumoniae I UC 41; UC41, BHI Agar, 37°, 20 hours, Table IV (printed D. pneumoniae UC 41)): > 500 µg/mL; MIC (S. pyogenes UC 152; UC152, BHI Agar, 37°, 20 hours, Table IV): 250 µg/mL (≈ 554 µM); MIC (K. pneumoniae UC 58; UC58, BHI Agar, 37°, 20 hours, Table IV): 125 µg/mL (≈ 277 µM); MIC (S. aureus UC 76; UC76, BHI Agar, 37°, 20 hours, Table IV): 250 µg/mL (≈ 554 µM); MIC (P. morganii UC 3186; UC3186, BHI Agar, 37°, 20 hours, Table IV): 250 µg/mL (≈ 554 µM); zone of inhibition at 1000 µg/mL (S. aureus UC 80; UC80, read-out: Zones of Inhibition, 1 mg/ml, Table I): 21 mm; zone of inhibition at 1000 µg/mL (B. cereus UC 3145; UC3145, 1 mg/ml, Table I, read-out: Zones of Inhibition): 18 mm
NC[C@H]1O[C@H](O[C@@H]2[C@@H](N)C[C@@H](N)C[C@H]2O[C@H]2O[C@H](CO)[C@@H](O)[C@H]2O)[C@H](N)[C@@H](O)[C@@H]1O [Compound XVα, O-2,6-diamino-2,6-dideoxy-α-D-glucopyranosyl (1→4)-O-[α-D-ribofuranosyl(1→5)]-2,6-dieoxy-D-streptamine]	250 µg/mL (≈ 570 µM)	62.5 µg/mL (≈ 143 µM)	> 500 µg/mL	125 µg/mL (≈ 285 µM)	500 µg/mL (≈ 1140 µM)	500 µg/mL (≈ 1140 µM)	500 µg/mL (≈ 1140 µM)	> 500 µg/mL	> 500 µg/mL	> 500 µg/mL	24 mm	25 mm	34 mm	26 mm	20 mm	31 mm	23 mm	MIC (S. pneumoniae I UC 41; UC41, 20 h): 125 µg/mL (≈ 285 µM); MIC (S. pyogenes UC 152; UC152, 20 h): 31.2 µg/mL (≈ 71.2 µM); MIC (K. pneumoniae UC 58; UC58, 20 h): 15.6 µg/mL (≈ 35.6 µM); MIC (S. aureus UC 76; UC76, 20 h): 125 µg/mL (≈ 285 µM); MIC (P. morganii UC 3186; UC3186, 20 h): 125 µg/mL (≈ 285 µM); zone of inhibition at 100 µg/mL (E. coli UC 51; Table I): 17 mm; zone of inhibition at 100 µg/mL (S. aureus UC 80; UC80, Table I, read-out: Zones of Inhibition): 17 mm; zone of inhibition at 1000 µg/mL (S. aureus UC 80; UC80, 1 mg/ml, Table I, read-out: Zones of Inhibition): 25 mm; zone of inhibition at 100 µg/mL (S. gallinarum UC 265; Table I): 17 mm; zone of inhibition at 1000 µg/mL (S. lutea UC 130; Table I): 16 mm; zone of inhibition at 100 µg/mL (K. pneumoniae UC 57; Table I): 23 mm; zone of inhibition at 1000 µg/mL (B. cereus UC 3145; UC3145, read-out: Zones of Inhibition, 1 mg/ml, Table I): 20 mm
